Consider 1 compound from publication PMC10301845, “Characterization of a Novel M4 PAM PET Radioligand [11C]PF06885190 in Nonhuman Primates (NHP)” (Molecules, 2023).

SMILES strings stand for the structures. pKi: −log10 of the molar value.

For assay [1], the target named is T1, M4 (Homo sapiens, UniProt P08173).
T1 sequence (P08173 1-479): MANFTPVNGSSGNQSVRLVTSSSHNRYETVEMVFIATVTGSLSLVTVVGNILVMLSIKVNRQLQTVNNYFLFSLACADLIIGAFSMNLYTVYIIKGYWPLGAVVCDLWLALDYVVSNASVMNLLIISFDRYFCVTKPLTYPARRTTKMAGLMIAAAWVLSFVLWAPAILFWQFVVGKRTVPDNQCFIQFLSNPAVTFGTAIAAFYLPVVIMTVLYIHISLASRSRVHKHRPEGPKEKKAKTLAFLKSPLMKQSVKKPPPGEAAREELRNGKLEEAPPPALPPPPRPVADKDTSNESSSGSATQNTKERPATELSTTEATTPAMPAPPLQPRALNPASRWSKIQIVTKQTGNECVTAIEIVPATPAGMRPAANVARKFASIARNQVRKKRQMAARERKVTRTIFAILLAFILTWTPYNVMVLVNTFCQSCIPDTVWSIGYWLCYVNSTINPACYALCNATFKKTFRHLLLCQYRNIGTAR
The assay can be described thus: human M4 binding affinity (evaluated by Pfizer). Conditions: identified and evaluated by Pfizer.

The target of assay [2] is T2, M4 (Rattus norvegicus, UniProt P08485).
T2 sequence (P08485 1-478): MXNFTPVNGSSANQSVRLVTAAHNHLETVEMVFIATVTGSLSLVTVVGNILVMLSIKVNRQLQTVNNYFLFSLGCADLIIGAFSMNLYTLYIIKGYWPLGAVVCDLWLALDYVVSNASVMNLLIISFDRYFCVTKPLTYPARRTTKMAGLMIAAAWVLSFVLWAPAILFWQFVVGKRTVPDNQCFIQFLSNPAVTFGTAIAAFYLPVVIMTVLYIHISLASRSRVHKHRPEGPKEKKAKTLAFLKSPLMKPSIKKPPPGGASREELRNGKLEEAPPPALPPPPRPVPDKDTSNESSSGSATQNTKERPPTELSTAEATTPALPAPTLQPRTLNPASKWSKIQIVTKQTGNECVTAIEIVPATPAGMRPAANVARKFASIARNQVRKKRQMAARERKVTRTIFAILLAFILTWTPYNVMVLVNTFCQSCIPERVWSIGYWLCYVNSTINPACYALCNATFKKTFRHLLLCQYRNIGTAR
The assay can be described thus: rat M4 binding affinity (evaluated by Pfizer). The following applies: identified and evaluated by Pfizer.

`CNc1nc(C)c(C)c2c1CN(C(=O)C[C@H]1C[C@@H]1c1ccc(F)nc1)C2` [PF06885190, 1-(6,7-dimethyl-4-(methylamino)-1,3-dihydro-2H-pyrrolo [3,4-c]pyridin-2-yl)-2-((1R,2S)-2-(6-fluoropyridin-3-yl)cyclopropyl)ethan-1-one]: the pKi on M4 [1] is 9.80; at M4 [2], 8.15.
